Measurements taken from publication PMC7655512 (Cell stem cell, 2020).

Key:
[1] = test system: LQT3 SCN5A N406K hiPSC-CMs; assay: Optical voltage assay, second genetic LQT3 model; format: cell-based, human; details: result in words
[2] = test system: genetic and pharmacological LQT3 hiPSC-CM models; assay: Optical voltage assay across genetic and pharmacological LQT3 hiPSC-CM models; format: cell-based, human; details: for general APD effect at low or high doses: summary over all models, result in words
[3] = test system: HD.113 hiPSC-CMs treated with ATX-II; assay: High dose ATX-II induced arrhythmia in healthy donor hiPSC-CMs; format: cell-based, human; details: ATX-II 1 μM; result in words
SCN5A L409P/R588 mutant = SCN5A L409P/R588 mutant (Homo sapiens, UniProt Q14524, H558R/L409P); assay: Automated planar patch clamp of LQT3 mutant channel in HEK293T cells; format: cell-based; details: for preference of block between INaP and INaL: result in words
HD.CDI hiPSC-CMs = assay: High throughput optical action potential recording, healthy donor hiPSC-CMs; details: result in words

Chain of SCN5A L409P/R588 mutant (Q14524 whole entry L409P/H558R): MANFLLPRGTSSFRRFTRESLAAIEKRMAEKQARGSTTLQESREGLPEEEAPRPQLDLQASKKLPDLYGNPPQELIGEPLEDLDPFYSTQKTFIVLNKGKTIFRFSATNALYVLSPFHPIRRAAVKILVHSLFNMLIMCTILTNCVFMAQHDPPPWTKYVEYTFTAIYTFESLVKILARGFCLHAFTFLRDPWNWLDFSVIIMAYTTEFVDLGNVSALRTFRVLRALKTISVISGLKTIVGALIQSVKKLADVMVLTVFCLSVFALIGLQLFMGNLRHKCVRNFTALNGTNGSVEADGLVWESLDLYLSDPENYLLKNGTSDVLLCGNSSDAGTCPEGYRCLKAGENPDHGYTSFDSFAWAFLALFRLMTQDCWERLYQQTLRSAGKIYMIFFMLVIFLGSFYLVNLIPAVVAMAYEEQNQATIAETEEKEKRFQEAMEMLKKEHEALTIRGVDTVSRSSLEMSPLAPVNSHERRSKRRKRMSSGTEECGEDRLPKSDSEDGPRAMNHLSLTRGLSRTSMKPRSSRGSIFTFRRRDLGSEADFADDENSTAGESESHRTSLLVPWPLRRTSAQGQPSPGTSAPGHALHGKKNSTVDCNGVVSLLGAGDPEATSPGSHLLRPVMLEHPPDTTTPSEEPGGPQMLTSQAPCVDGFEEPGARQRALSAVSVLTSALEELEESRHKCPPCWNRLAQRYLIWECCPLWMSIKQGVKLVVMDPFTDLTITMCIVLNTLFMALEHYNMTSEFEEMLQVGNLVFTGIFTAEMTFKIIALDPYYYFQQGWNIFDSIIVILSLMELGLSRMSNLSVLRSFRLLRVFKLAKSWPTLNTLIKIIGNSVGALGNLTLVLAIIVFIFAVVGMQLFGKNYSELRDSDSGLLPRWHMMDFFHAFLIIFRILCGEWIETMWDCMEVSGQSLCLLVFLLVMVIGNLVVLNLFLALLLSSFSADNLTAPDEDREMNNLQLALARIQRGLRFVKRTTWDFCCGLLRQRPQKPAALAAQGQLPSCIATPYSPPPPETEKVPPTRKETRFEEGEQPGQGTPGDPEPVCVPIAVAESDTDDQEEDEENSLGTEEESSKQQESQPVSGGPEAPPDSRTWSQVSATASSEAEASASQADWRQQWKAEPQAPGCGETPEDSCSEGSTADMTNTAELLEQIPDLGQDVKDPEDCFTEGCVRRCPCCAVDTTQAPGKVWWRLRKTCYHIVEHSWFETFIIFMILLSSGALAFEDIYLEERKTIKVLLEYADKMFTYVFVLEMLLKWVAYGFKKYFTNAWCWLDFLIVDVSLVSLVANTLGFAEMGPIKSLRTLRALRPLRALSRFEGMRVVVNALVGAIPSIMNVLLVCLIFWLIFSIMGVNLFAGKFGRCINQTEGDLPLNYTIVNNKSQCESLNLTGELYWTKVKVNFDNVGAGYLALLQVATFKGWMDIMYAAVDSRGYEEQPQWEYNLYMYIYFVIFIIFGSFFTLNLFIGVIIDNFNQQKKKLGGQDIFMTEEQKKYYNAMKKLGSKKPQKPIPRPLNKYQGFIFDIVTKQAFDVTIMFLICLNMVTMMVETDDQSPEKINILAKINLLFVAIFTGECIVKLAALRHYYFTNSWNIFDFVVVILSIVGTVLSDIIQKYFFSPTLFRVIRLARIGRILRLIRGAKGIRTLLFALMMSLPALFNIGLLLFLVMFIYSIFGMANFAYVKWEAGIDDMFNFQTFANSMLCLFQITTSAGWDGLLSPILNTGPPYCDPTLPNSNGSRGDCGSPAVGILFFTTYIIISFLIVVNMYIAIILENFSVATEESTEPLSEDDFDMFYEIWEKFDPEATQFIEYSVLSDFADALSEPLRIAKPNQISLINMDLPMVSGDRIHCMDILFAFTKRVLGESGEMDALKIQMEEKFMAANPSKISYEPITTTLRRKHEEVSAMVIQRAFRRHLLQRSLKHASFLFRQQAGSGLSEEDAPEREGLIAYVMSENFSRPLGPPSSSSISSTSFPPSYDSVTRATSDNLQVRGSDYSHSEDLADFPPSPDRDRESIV

`FC(F)(F)Oc1ccc(-c2ccc3nnc(C(F)(F)F)n3c2)cc1` [GS-967] was tested, and the “suppression of spontaneous arrhythmia” value [1] was “effective”, the “general APD effect at low or high doses” value [2] was “most pronounced shortening at low doses” and the “suppression of ATX-II induced arrhythmia” value [3] was “effective”.

In the case of `Cc1ccccc1OCC(N)c1ccccc1` (stereo not shown) [MexA2, 1-Phenyl-2-(o-tolyloxy)ethan-1-amine], the “preference of block between INaP and INaL” value (SCN5A L409P/R588 mutant) was “preferentially blocked INaP over INaL”.

With `Cc1cc(C)cc(OCC(N)c2ccccc2)c1` (stereo not shown) [MexA3] the “block of INaL” value (SCN5A L409P/R588 mutant) was “did not block INaL” and the “preference of block between INaP and INaL” value (SCN5A L409P/R588 mutant) was “preferentially blocked INaP over INaL”.

In the case of `NC(COc1ccccc1C(F)(F)F)c1ccccc1` (stereo not shown) [MexA4, 1-Phenyl-2-(2-(trifluoromethyl)phenoxy)ethan-1-amine], the “proarrhythmic response (APD prolongation, EADs)” value (HD.CDI hiPSC-CMs) was “not proarrhythmic”.

In the case of `COCCNC(COc1cccc(C)c1C)c1ccccc1` (stereo not shown) [MexA5, 2-(2,3-dimethylphenoxy)-N-(2-methoxyethyl)-1-phenylethan-1-amine], the “suppression of spontaneous arrhythmia” value [1] was “terminated spontaneous arrhythmias”, the “general APD effect at low or high doses” value [2] was “most pronounced shortening at low doses” and the “asystole effect, change with N-ethyl methoxy substitution” value (HD.CDI hiPSC-CMs; high concentrations) was “decreased this effect”.

In the case of `Cc1cccc(C)c1OCC(C)N` (stereo not shown) [mexiletine, Mexiletine], the APD change [1] was “weakly”, the “APD change across LQT3 hiPSC-CM models” value [2] was “substantially prolonged the AP in all hiPSC-CMs examined” and the “APD shortening in pharmacological LQT3 models” value [2] was “not in all the pharmacological models”. The “general APD effect at low or high doses” value [2] was “prolonged the APD at high doses” and the “proarrhythmic response (APD prolongation, EADs)” value (HD.CDI hiPSC-CMs) was “proarrhythmic response”.

For `COc1ccccc1OCC(O)CN1CCN(CC(=O)Nc2c(C)cccc2C)CC1` (stereo not shown) [ranolazine], the APD change [1] was “did not shorten APD and induced EADs at high doses”, the “suppression of spontaneous arrhythmia” value [1] was “blocked arrhythmia only in the genetic LQT3 model” and the “general APD effect at low or high doses” value [2] was “prolonged the APD at high doses”. For the same molecule, the “suppression of ATX-II induced arrhythmia” value [3] was “blocked arrhythmia only in the genetic LQT3 model”.
